Laboratory results published in patent US12220411B1, “Application of PTGDS inhibitor in preparation of drug for treating cataracts” (THE EYE HOSPITAL OR WENZHOU MEDICAL UNIVERSITY, priority 2023, dated 2025).

Columns and labels:
lens epithelial cells [1] = test: ROS fluorescence staining after addition of PTGDS or PGD2; format: cell-based, human
lens epithelial cells [2] = test: MDA content measurement (oxidative stress injury); format: cell-based, human
Experimental: MDA is an important index of oxidative stress, and measurement on the content of the MDA reflects a degree of an oxidative stress injury. After addition of different concentrations of PTGDS (FIG. 10A) and PGD2 (FIG. 10B), values of MDA were measured.

HLEC-B3 cell line = test: CCK8 cell activity with AT-56 added; format: cell-based, human
Experimental: AT-56 was added to the cell line.

lens epithelial cells [3] = test: ROS fluorescence staining in H2O2 epithelial cell oxidation model; format: cell-based, human; conditions: 200 μM H2O2 and 10 µM AT-56 (FIG. 9)
lens epithelial cells [4] = test: Apoptosis of lens epithelial cells cultured with H2O2; format: cell-based, human; conditions: 10 μM AT-56 added to 200 μM H2O2 (FIG. 11)
Excerpt: If the lens epithelial cells suffer from the oxidative stress injury, excessive ROS may accumulate in the cells, which can cause apoptosis until generation of cataracts.

rat lens = test: In vitro oxidative opacity model for a rat lens (lens organ culture)

Molecule: CCCCC[C@H](O)/C=C/[C@H]1C(=O)C[C@H](O)[C@@H]1C/C=C\CCCC(=O)O [PGD2, prostaglandin D2]
- levels of ROS produced by the lens epithelial cells (lens epithelial cells [1]; PGD2 0.1, 0.4, 0.7, 1.0 nM versus DMSO (FIG. 8)): increased, and were concentration-dependent
- content of MDA (lens epithelial cells [2]; different concentrations of PGD2 (FIG. 10B)): increased with the increase of the concentration

Molecule: C1=Cc2ccccc2C(=C2CCN(CCCCc3nn[nH]n3)CC2)c2ccccc21 [AT-56, 4-dibenzo[a,d]cyclohepten-5-ylidene-1-[4-(2H-tetrazol-5-yl)-butyl]-piperidine]
- cell activity (CCK8) (HLEC-B3 cell line; 7 μM AT-56, versus DMSO): higher than that with the addition of DMSO
- cell activity (CCK8) (HLEC-B3 cell line; 10 μM AT-56, versus DMSO): higher than that with the addition of DMSO
- ROS production in H2O2 epithelial cell oxidation model (lens epithelial cells [3]): inhibit lens epithelial cells from producing ROS
- production of the MDA (lens epithelial cells [2]; AT-56 added to 200 μM H2O2 (FIG. 10C)): effectively reduce production of the MDA
- apoptosis of lens epithelial cells (lens epithelial cells [4]): effectively reduce apoptosis
- progression of the cataracts (lens opacity) (rat lens; 200 μM H2O2 + 7 or 10 μM AT-56 for 12 h (FIGS. 12A-D)): alleviated progression of the cataracts
- degree of the cataracts (lens opacity) (rat lens; 200 μM H2O2 for 12 h, then 7 or 10 μM AT-56 for 24 h (FIGS. 12E-G)): effectively reduce the degree of the cataracts

B1: PTGDS: prostaglandin H2 (PGH2) D-isomerase protein added to lens epithelial cells at 100-1000 pg/mL (protein, UniProt P41222 23-190, looked up)
Prostaglandin-H2 D-isomerase: APEAQVSVQPNFQQDKFLGRWFSAGLASNSSWLREKKAALSMCKSVVAPATDGGLNLTSTFLRKNQCETRTMLLQPAGSLGSYSYRSPHWGSTYSVSVVETDYDQYALLYSQGSKGPGEDFRMATLYSRTQTPRAELKEKFTAFCKAQGFTEDTIVFLPQTDKCMTEQ
- levels of ROS produced by the lens epithelial cells (lens epithelial cells [1]; PTGDS 100, 400, 700, 1000 pg/mL versus DMSO control (FIG. 7)): increased, and were concentration-dependent
- content of MDA (lens epithelial cells [2]; different concentrations of PTGDS (FIG. 10A)): increased with the increase of the concentration
